Results from patent publication US20250270209A1 (INTERLINE THERAPEUTICS, INC., priority 2022, published 2025).

Tests used:
[1] = biological target: LRRK2 wild type enzyme (Homo sapiens, UniProt Q5S007); experiment: Biochemical Assay: LRRK2 TR-FRET (LanthaScreen) kinase assay with LRRKtide substrate; settings: LRRK2 Inhibition, Table 8
Outline: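 TR-FRET detection (Tb-labelled phospho-LRRKtide antibody, EDTA stop, 30 min) followed a 120 min, 23 °C reaction of 3 nM wild-type human LRRK2 with LRRKtide (400 nM) and ATP (25 μM) in Tris pH 8.0. Compounds: 11-point 3-fold series from 10 μM, 15 min enzyme preincubation.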

[2] = biological target: T1, wild type LRRK2 overexpressed in recombinant HEK-293T cells (Homo sapiens, UniProt Q5S007); experiment: pS935 LRRK2 Cell Assay (HTRF, phospho-LRRK2 Ser935); format: cell-based; settings: LRRK2 Inhibition, Table 8, 2 hours compound incubation
T1 construct: host or cells: HEK293T (transient transfection with pCMV-LRRK2 WT plasmid)
T1 sequence (Q5S007 whole entry): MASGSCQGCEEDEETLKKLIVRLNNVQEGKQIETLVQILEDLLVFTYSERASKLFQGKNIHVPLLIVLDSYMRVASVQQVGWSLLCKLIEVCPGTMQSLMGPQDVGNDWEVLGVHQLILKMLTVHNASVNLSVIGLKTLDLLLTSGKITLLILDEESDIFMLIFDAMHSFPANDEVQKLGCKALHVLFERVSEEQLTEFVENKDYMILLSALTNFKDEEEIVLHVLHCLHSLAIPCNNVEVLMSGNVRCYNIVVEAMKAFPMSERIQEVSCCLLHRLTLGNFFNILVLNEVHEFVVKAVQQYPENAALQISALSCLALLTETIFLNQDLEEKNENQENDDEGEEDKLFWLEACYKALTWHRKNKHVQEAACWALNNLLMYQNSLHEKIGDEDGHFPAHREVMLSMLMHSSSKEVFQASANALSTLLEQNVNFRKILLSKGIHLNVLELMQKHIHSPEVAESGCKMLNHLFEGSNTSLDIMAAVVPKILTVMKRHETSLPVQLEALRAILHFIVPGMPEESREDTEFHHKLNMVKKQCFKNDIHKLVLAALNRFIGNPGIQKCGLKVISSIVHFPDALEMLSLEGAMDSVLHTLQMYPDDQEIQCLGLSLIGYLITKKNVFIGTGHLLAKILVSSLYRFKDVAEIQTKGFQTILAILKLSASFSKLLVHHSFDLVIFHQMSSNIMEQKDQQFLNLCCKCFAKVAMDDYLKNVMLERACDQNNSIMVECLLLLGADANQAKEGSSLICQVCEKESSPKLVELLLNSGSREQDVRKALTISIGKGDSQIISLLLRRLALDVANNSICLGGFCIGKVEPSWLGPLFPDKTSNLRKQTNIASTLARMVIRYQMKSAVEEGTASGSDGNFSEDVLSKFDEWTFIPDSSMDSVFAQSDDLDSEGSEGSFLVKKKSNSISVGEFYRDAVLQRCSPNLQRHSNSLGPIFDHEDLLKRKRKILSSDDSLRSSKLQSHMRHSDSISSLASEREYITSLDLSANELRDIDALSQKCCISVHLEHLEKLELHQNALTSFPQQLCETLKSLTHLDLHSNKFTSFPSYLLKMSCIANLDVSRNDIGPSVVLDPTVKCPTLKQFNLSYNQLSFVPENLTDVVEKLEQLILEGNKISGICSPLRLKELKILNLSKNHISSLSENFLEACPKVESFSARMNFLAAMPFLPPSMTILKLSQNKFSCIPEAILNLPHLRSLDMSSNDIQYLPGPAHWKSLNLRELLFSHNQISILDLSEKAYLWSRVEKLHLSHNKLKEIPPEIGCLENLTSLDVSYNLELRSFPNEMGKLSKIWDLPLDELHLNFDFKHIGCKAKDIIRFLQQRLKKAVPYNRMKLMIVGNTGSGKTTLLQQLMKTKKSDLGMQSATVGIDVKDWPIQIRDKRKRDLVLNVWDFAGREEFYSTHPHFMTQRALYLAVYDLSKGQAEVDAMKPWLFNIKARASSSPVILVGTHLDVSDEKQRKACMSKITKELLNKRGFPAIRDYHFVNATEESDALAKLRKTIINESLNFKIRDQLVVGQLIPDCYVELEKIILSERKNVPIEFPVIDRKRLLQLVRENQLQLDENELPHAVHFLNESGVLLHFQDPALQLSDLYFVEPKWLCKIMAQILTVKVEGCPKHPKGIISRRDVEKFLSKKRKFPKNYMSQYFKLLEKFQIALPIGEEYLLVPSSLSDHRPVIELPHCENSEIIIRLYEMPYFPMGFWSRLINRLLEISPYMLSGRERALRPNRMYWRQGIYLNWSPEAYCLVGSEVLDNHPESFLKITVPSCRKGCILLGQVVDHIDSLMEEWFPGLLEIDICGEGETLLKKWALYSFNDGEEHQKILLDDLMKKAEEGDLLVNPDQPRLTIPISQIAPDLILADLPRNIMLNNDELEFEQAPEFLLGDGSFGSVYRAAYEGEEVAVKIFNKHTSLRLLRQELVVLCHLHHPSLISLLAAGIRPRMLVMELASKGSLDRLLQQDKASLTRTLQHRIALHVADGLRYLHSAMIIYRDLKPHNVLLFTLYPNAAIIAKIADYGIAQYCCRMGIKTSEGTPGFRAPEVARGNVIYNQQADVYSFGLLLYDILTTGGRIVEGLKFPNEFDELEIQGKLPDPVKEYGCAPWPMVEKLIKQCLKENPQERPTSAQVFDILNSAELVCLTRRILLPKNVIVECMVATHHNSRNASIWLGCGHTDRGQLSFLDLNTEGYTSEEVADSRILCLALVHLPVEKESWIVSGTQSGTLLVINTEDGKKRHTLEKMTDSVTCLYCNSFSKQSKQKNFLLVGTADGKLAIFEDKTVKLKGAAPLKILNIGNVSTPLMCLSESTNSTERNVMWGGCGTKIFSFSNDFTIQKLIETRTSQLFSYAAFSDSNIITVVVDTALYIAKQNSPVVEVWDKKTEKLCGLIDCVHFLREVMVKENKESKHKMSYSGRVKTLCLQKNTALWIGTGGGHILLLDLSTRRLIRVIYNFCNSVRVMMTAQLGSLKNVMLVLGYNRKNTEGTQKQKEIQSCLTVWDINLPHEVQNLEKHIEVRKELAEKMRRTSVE
Outline: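 Phospho-Ser935 LRRK2 measured by two-antibody HTRF (Eu-cryptate donor, d2 acceptor; 665/615 nm ratio) after overnight detection at 23° C. Before lysis, transiently LRRK2-transfected HEK-293T cells were exposed 2 h at 37° C to a 9-point, 3-fold series from 10 μM, with DMSO at 0.2%.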

Chain of LRRK2 wild type enzyme (Q5S007 whole entry): as above

**Q.** For `C[C@@H]1C[C@H](n2c(CC(=O)NC3CC3)nc3cnc4ccc(C(F)(F)F)cc4c32)CCO1` [Compound 327, N-cyclopropyl{3-[(2R,4R)-2-methyltetrahydro-2H-pyran-4-yl]-12-(trifluoromethyl)-3,5,8-triazatricyclo[7.4.0.0^2,6]trideca-1,4,6,8,10,12-hexaen-4-yl}acetamide], which IC50 [1] is on record?
**A.** 1.41 nM

**Q.** What about the IC50 [2] of the same molecule?
**A.** 43.1 nM

**Q.** For `C[C@@H]1C[C@H](n2c(CN3CCOCC3=O)nc3cnc4ccc(C#N)cc4c32)CCO1` [Compound 78, 1-[(2R,4R)-2-methyloxan-4-yl]-2-[(3-oxomorpholin-4-yl)methyl]-1H-imidazo[4,5-c]quinoline-8-carbonitrile], which IC50 [1] is on record?
**A.** 12.2 nM

**Q.** What about the IC50 [2] of the same molecule?
**A.** 1010 nM

**Q.** Which IC50 [1] does the source give for `C[C@@H]1C[C@H](n2c(CC(=O)NC3(c4ncccn4)CC3)nc3cnc4ccc(C#N)cc4c32)CCO1` [Compound 360, N-[1-(2-pyrimidinyl)cyclopropyl]{3-[(2R,4R)-2-methyltetrahydro-2H-pyran-4-yl]-12-cyano-3,5,8-triazatricyclo[7.4.0.0^2,6]trideca-1,4,6,8,10,12-hexaen-4-yl}acetamide] here?
**A.** 1.24 nM

**Q.** What about the IC50 [2] of the same molecule?
**A.** 104 nM

**Q.** How did the IC50 [1] turn out when `C[C@@H]1C[C@H](n2c(CC(=O)Nc3ccon3)nc3cnc4ccc(C#N)cc4c32)CCO1` [Compound 184, 2-{8-cyano-1-[(2R,4R)-2-methyloxan-4-yl]-1H-imidazo[4,5-c]quinolin-2-yl}-N-(1,2-oxazol-3-yl)acetamide] was run?
**A.** 0.299 nM

**Q.** And the IC50 [2]?
**A.** 4.73 nM

**Q.** With `C[C@@H]1C[C@H](n2c(C3CC(=O)N([C@@H]4CCCOC4)C3)nc3cnc4ccc(C#N)cc4c32)CCO1` (stereo partly drawn) [Compound 51, 1-[(2R,4R)-2-methyloxan-4-yl]-2-{1-[(3R)-oxan-3-yl]-5-oxopyrrolidin-3-yl}-1H-imidazo[4,5-c]quinoline-8-carbonitrile] as the molecule, how does the IC50 [1] read?
**A.** 3.03 nM

**Q.** What about the IC50 [2] of the same molecule?
**A.** 312 nM

**Q.** How did the IC50 [1] turn out when `COc1nccc(F)c1NC(=O)Cc1nc2cnc3ccc(C#N)cc3c2n1[C@@H]1CCO[C@H](C)C1` [Compound 202, N-(4-fluoro-2-methoxy-3-pyridyl){3-[(2R,4R)-2-methyltetrahydro-2H-pyran-4-yl]-12-cyano-3,5,8-triazatricyclo[7.4.0.0^2,6]trideca-1,4,6,8,10,12-hexaen-4-yl}acetamide] was run?
**A.** 0.364 nM

**Q.** What about the IC50 [2] of the same molecule?
**A.** 8.58 nM

**Q.** Which results are given for `C[C@@H]1C[C@H](n2c(CC(=O)Nc3cccn(CC(C)(C)O)c3=O)nc3cnc4ccc(C#N)cc4c32)CCO1` [Compound 240, N-[1-(2-hydroxy-2-methylpropyl)-2-oxo-1,2-dihydro-3-pyridyl]{3-[(2R,4R)-2-methyltetrahydro-2H-pyran-4-yl]-12-cyano-3,5,8-triazatricyclo[7.4.0.0^2,6]trideca-1(9),2(6),4,7,10,12-hexaen-4-yl}acetamide]?
**A.** IC50 [1]: 0.328 nM; IC50 [2]: 26.7 nM

**Q.** Which results are given for `C[C@@H]1C[C@H](n2c(CS(=O)(=O)NCC3CC3)nc3cnc4ccc(C#N)cc4c32)CCO1` [Compound 55, 1-{8-cyano-1-[(2R,4R)-2-methyloxan-4-yl]-1H-imidazo[4,5-c]quinolin-2-yl}-N-(cyclopropylmethyl)methanesulfonamide]?
**A.** IC50 [1]: 2.3 nM; IC50 [2]: 272 nM

**Q.** What does the source list for `CC(=O)N1CC[C@H](c2nc3cnc4ccc(C#N)cc4c3n2[C@@H]2CCO[C@H](C)C2)C1` [Compound 43, 2-[(3S)-1-acetylpyrrolidin-3-yl]-1-[(2R,4R)-2-methyloxan-4-yl]-1H-imidazo[4,5-c]quinoline-8-carbonitrile]?
**A.** IC50 [1]: 12.4 nM; IC50 [2]: 1680 nM

**Q.** `COCCn1ccc(NC(=O)Cc2nc3cnc4ccc(C#N)cc4c3n2[C@@H]2CCO[C@H](C)C2)n1` [Compound 174, 2-{8-cyano-1-[(2R,4R)-2-methyloxan-4-yl]-1H-imidazo[4,5-c]quinolin-2-yl}-N-[1-(2-methoxyethyl)-1H-pyrazol-3-yl]acetamide] was tested. Which IC50 [1] did it give?
**A.** 0.316 nM

**Q.** And the IC50 [2]?
**A.** 5.35 nM

**Q.** What does the source list for `CCOc1ncccc1NC(=O)Cc1nc2cnc3ccc(C#N)cc3c2n1[C@@H]1CCO[C@H](C)C1` [Compound 275, N-(2-ethoxy-3-pyridyl){3-[(2R,4R)-2-methyltetrahydro-2H-pyran-4-yl]-12-cyano-3,5,8-triazatricyclo[7.4.0.0^2,6]trideca-1,4,6,8,10,12-hexaen-4-yl}acetamide]?
**A.** IC50 [1]: 0.478 nM; IC50 [2]: 2.41 nM
